In article PMC7416410, “Synthesis, molecular docking and molecular dynamic simulation studies of 2-chloro-5-[(4-chlorophenyl)sulfamoyl]-N-(alkyl/aryl)-4-nitrobenzamide derivatives as antidiabetic agents” (BMC Chemistry, 2020):

Experiments:
[1] = target: α-amylase from malt; test: α-Amylase inhibitory assay; assay type: biochemical; settings: for IC50: in vitro
Text: The analytical grade chemicals and reagents were used as such in experiments without any purification. Decibel melting point apparatus was used for checking the melting point of the synthesized compounds and are reported as uncorrected. The silica gel-precoated aluminum sheets for thin-layer chromatography (TLC) were employed to keep a vigil of the reaction progress. FT-IR (Diffuse Reflectance Method (DRS) -8000A, Shimadzu, Japan) spectrophotometer was utilized for recording infrared spectra and the Bruker Avance III, 400 MHz NMR spectrometer was employed for nuclear magnetic resonance spectra (^1H NMR, ^13C NMR; Chemical shift δ values- ppm). α-Glucosidase from Saccharomyces cerevisiae (EC 3.2.1.20, Sigma Aldrich) and α-amylase from malt (232-588-1, HiMedia) have been used for in vitro studies.
Xiao et al., and Yoshikawa et al., illustrated a method, with little modification this method has been adopted for measuring the activity.

[2] = target: T1, α-Glucosidase from Saccharomyces cerevisiae (Saccharomyces cerevisiae, UniProt P53341); test: α-Glucosidase inhibitory assay; assay type: biochemical; settings: for IC50: in vitro
T1 construct: purchased Sigma Aldrich
T1 sequence (P53341 whole entry): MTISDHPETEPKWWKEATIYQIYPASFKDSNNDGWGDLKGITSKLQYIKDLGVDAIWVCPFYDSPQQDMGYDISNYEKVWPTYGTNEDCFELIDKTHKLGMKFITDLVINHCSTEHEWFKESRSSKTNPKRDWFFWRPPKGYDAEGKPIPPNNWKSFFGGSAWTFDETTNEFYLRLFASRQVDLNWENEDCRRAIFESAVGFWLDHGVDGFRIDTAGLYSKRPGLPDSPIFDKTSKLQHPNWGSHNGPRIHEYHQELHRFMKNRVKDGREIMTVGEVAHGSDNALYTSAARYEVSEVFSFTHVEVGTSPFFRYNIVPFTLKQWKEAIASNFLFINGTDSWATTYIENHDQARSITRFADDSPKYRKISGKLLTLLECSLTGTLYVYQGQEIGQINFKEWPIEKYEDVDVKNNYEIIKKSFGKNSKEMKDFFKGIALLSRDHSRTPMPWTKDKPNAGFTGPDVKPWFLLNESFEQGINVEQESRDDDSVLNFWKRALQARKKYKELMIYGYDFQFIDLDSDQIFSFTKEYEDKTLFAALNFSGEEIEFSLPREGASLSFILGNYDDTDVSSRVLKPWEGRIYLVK
Text: The analytical grade chemicals and reagents were used as such in experiments without any purification. Decibel melting point apparatus was used for checking the melting point of the synthesized compounds and are reported as uncorrected. The silica gel-precoated aluminum sheets for thin-layer chromatography (TLC) were employed to keep a vigil of the reaction progress.
The method adopted for performing α-glucosidase inhibitory assay was similar to our prevenient study, Thakral and Singh.

C[C@H]1O[C@H](O[C@H]2[C@H](O)[C@@H](O)[C@@H](O[C@H]3[C@H](O)[C@@H](O)C(O)O[C@@H]3CO)O[C@@H]2CO)[C@H](O)[C@@H](O)[C@@H]1N[C@H]1C=C(CO)[C@@H](O)[C@H](O)[C@H]1O (stereo partly drawn) [Acarbose, reference compound]
IC50 [1]: 5.6 ± 0.3 µM

Cc1ccc(NC(=O)c2cc(S(=O)(=O)Nc3ccc(Cl)cc3)c([N+](=O)[O-])cc2Cl)cc1 [Compound 5a, 2-Chloro-5-[(4-chlorophenyl)sulfamoyl]-N-(4-methylphenyl)-4-nitrobenzamide]
IC50 [2]: 31.4 ± 1.66 µM | IC50 [1]: 7.4 ± 0.15 µM | melting point: 90 to 92 °C

Cc1cccc(NC(=O)c2cc(S(=O)(=O)Nc3ccc(Cl)cc3)c([N+](=O)[O-])cc2Cl)c1 [Compound 5b, 2-Chloro-5-[(4-chlorophenyl)sulfamoyl]-N-(3-methylphenyl)-4-nitrobenzamide]
IC50 [2]: 24.8 ± 2.69 µM | IC50 [1]: 5.3 ± 1.23 µM | melting point: 102 to 104 °C

Cc1ccccc1NC(=O)c1cc(S(=O)(=O)Nc2ccc(Cl)cc2)c([N+](=O)[O-])cc1Cl [Compound 5c, 2-Chloro-5-[(4-chlorophenyl)sulfamoyl]-N-(2-methylphenyl)-4-nitrobenzamide]
IC50 [2]: 26.8 ± 1.13 µM | IC50 [1]: 8 ± 0.71 µM | melting point: 88 to 90 °C

COc1ccc(NC(=O)c2cc(S(=O)(=O)Nc3ccc(Cl)cc3)c([N+](=O)[O-])cc2Cl)cc1 [Compound 5d, 2-Chloro-5-[(4-chlorophenyl)sulfamoyl]-N-(4-methoxyphenyl)-4-nitrobenzamide]
IC50 [2]: 38.57 ± 0.01 µM | IC50 [1]: 38 ± 0.51 µM | melting point: 150 to 152 °C

COc1ccccc1NC(=O)c1cc(S(=O)(=O)Nc2ccc(Cl)cc2)c([N+](=O)[O-])cc1Cl [Compound 5e, 2-Chloro-5-[(4-chlorophenyl)sulfamoyl]-N-(2-methoxyphenyl)-4-nitrobenzamide]
IC50 [2]: 41.7 ± 1.08 µM | IC50 [1]: 50.3 ± 0.21 µM | melting point: 164 to 166 °C

O=C(Nc1ccc(Br)cc1)c1cc(S(=O)(=O)Nc2ccc(Cl)cc2)c([N+](=O)[O-])cc1Cl [Compound 5f, N-(4-Bromophenyl)-2-chloro-5-[(4-chlorophenyl)sulfamoyl]-4-nitrobenzamide]
IC50 [2]: 50.2 ± 0.89 µM | IC50 [1]: 16 ± 0.33 µM | melting point: 200 to 202 °C

O=C(Nc1cccc(Br)c1)c1cc(S(=O)(=O)Nc2ccc(Cl)cc2)c([N+](=O)[O-])cc1Cl [Compound 5g, N-(3-Bromophenyl)-2-chloro-5-[(4-chlorophenyl)sulfamoyl]-4-nitrobenzamide]
IC50 [2]: 35.9 ± 0.6 µM | IC50 [1]: 16.7 ± 0.41 µM | melting point: 181 to 183 °C

O=C(Nc1ccccc1Br)c1cc(S(=O)(=O)Nc2ccc(Cl)cc2)c([N+](=O)[O-])cc1Cl [Compound 5h, N-(2-Bromophenyl)-2-chloro-5-[(4-chlorophenyl)sulfamoyl]-4-nitrobenzamide]
IC50 [2]: 40.6 ± 1.49 µM | IC50 [1]: 19.3 ± 0.63 µM | melting point: 180 to 182 °C

O=C(Nc1cccc(Cl)c1)c1cc(S(=O)(=O)Nc2ccc(Cl)cc2)c([N+](=O)[O-])cc1Cl [Compound 5i, 2-Chloro-N-(3-chlorophenyl)-5-[(4-chlorophenyl)sulfamoyl]-4-nitrobenzamide]
IC50 [2]: 14 ± 0.93 µM | IC50 [1]: 27.1 ± 0.51 µM | melting point: 220 to 222 °C

O=C(Nc1ccccc1Cl)c1cc(S(=O)(=O)Nc2ccc(Cl)cc2)c([N+](=O)[O-])cc1Cl [Compound 5j, 2-Chloro-N-(2-chlorophenyl)-5-[(4-chlorophenyl)sulfamoyl]-4-nitrobenzamide]
IC50 [2]: 15.8 ± 0.9 µM | IC50 [1]: 20.9 ± 1.24 µM | melting point: 176 to 178 °C

O=C(Nc1ccccc1[N+](=O)[O-])c1cc(S(=O)(=O)Nc2ccc(Cl)cc2)c([N+](=O)[O-])cc1Cl [Compound 5k, 2-Chloro-5-[(4-chlorophenyl)sulfamoyl]-4-nitro-N-(2-nitrophenyl)benzamide]
IC50 [2]: 36.9 ± 1.3 µM | IC50 [1]: 12.5 ± 0.91 µM | melting point: 150 to 152 °C

Cc1c(Cl)cccc1NC(=O)c1cc(S(=O)(=O)Nc2ccc(Cl)cc2)c([N+](=O)[O-])cc1Cl [Compound 5l, 2-Chloro-N-(3-chloro-2-methylphenyl)-5-[(4-chlorophenyl)sulfamoyl]-4-nitrobenzamide]
IC50 [2]: 29 ± 0.86 µM | IC50 [1]: 6.3 ± 0.42 µM | melting point: 212 to 214 °C

Cc1c(NC(=O)c2cc(S(=O)(=O)Nc3ccc(Cl)cc3)c([N+](=O)[O-])cc2Cl)cccc1[N+](=O)[O-] [Compound 5m, 2-Chloro-5-[(4-chlorophenyl)sulfamoyl]-N-(2-methyl-3-nitrophenyl)-4-nitrobenzamide]
IC50 [2]: 24.5 ± 1.23 µM | IC50 [1]: 1.52 ± 0.84 µM | melting point: 170 to 172 °C

O=C(Nc1ccc([N+](=O)[O-])cc1Cl)c1cc(S(=O)(=O)Nc2ccc(Cl)cc2)c([N+](=O)[O-])cc1Cl [Compound 5n, 2-Chloro-N-(2-chloro-4-nitrophenyl)-5-[(4-chlorophenyl)sulfamoyl]-4-nitrobenzamide]
IC50 [2]: 29.5 ± 1.53 µM | IC50 [1]: 35.3 ± 0.45 µM | melting point: 214 to 216 °C

Cc1ccc([N+](=O)[O-])cc1NC(=O)c1cc(S(=O)(=O)Nc2ccc(Cl)cc2)c([N+](=O)[O-])cc1Cl [Compound 5o, 2-Chloro-5-[(4-chlorophenyl)sulfamoyl]-N-(2-methyl-5-nitrophenyl)-4-nitrobenzamide]
inhibitory potential against α-glucosidase in comparison to standard drug acarbose ([2]; fold relative to acarbose): fourfold | IC50 [2]: 10.8 ± 0.52 µM | inhibitory activity against α-amylase in comparison to standard drug acarbose ([1]; fold relative to acarbose): around six times | IC50 [1]: 0.9 ± 0.31 µM | melting point: 203 to 205 °C

Cc1cc([N+](=O)[O-])ccc1NC(=O)c1cc(S(=O)(=O)Nc2ccc(Cl)cc2)c([N+](=O)[O-])cc1Cl [Compound 5p, 2-Chloro-5-[(4-chlorophenyl)sulfamoyl]-N-(2-methyl-4-nitrophenyl)-4-nitrobenzamide]
IC50 [2]: 19.5 ± 0.43 µM | IC50 [1]: 2.1 ± 0.52 µM | melting point: 104 to 106 °C

O=C(Nc1ccc([N+](=O)[O-])cc1)c1cc(S(=O)(=O)Nc2ccc(Cl)cc2)c([N+](=O)[O-])cc1Cl [Compound 5q]
IC50 [2]: 43.9 ± 1.18 µM | IC50 [1]: 11.2 ± 0.67 µM | melting point: 177 to 179 °C

O=C(Nc1cccc([N+](=O)[O-])c1)c1cc(S(=O)(=O)Nc2ccc(Cl)cc2)c([N+](=O)[O-])cc1Cl [Compound 5r, 2-Chloro-5-[(4-chlorophenyl)sulfamoyl]-4-nitro-N-(3-nitrophenyl)benzamide]
IC50 [2]: 34.4 ± 0.62 µM | IC50 [1]: 15.3 ± 1.24 µM | melting point: 135 to 137 °C

CCCNC(=O)c1cc(S(=O)(=O)Nc2ccc(Cl)cc2)c([N+](=O)[O-])cc1Cl [Compound 5s, 2-Chloro-5-[(4-chlorophenyl)sulfamoyl]-4-nitro-N-propylbenzamide]
IC50 [2]: 106.2 ± 0.61 µM | IC50 [1]: 48.05 ± 0.23 µM | melting point: 116 to 118 °C

CCCCNC(=O)c1cc(S(=O)(=O)Nc2ccc(Cl)cc2)c([N+](=O)[O-])cc1Cl [Compound 5t, N-Butyl-2-chloro-5-[(4-chlorophenyl)sulfamoyl]-4-nitrobenzamide]
IC50 [2]: 131 ± 2.42 µM | IC50 [1]: 55.1 ± 0.71 µM | melting point: 111 to 113 °C

O=C(NCc1ccco1)c1cc(S(=O)(=O)Nc2ccc(Cl)cc2)c([N+](=O)[O-])cc1Cl [Compound 5u, 2-Chloro-5-[(4-chlorophenyl)sulfamoyl]-N-[(furan-2-yl)methyl]-4-nitrobenzamide]
IC50 [2]: 89 ± 1.76 µM | IC50 [1]: 38.2 ± 0.34 µM | melting point: 191 to 193 °C

O=C(Nc1ccncc1)c1cc(S(=O)(=O)Nc2ccc(Cl)cc2)c([N+](=O)[O-])cc1Cl [Compound 5v, 2-Chloro-5-[(4-chlorophenyl)sulfamoyl]-4-nitro-N-(pyridin-4-yl)benzamide]
IC50 [2]: 52.4 ± 1.92 µM | IC50 [1]: 40.4 ± 0.87 µM | melting point: 197 to 199 °C
